Results: a compilation of properties of binary mixtures (doi:10.1016/j.molliq.2020.112507)

Test: xn = mol fraction of the nth substance listed
Details: 100 kPa

CCCC[n+]1ccn(C)c1.COS(=O)(=O)[O-] + CCCC#N
x1 = 1
Details | speed of sound [m/s]
298.15 K | 1654.9
308.15 K | 1630.2
313.15 K | 1618.2

CCCC#N + CCCC[n+]1ccn(C)c1.COS(=O)(=O)[O-]
speed of sound [m/s]
Details | x2 = 0 | x2 = 0.1117 | x2 = 0.2128 | x2 = 0.3714 | x2 = 0.4263 | x2 = 0.5115 | x2 = 0.6345 | x2 = 0.7161 | x2 = 0.8065 | x2 = 0.9072
298.15 K | 1279.9 | – | 1395.9 | 1468.7 | 1490.6 | 1521.4 | 1559.7 | – | 1605.3 | 1630.9
303.15 K | 1260.6 | 1323.5 | 1378.9 | 1452.9 | 1475.5 | – | 1545.8 | 1568.8 | – | 1618.2
308.15 K | 1241 | 1305.2 | 1361.8 | 1437.1 | 1460.3 | – | 1531.9 | – | 1579.1 | 1605.5
313.15 K | 1221.2 | 1286.9 | 1344.7 | 1421.4 | – | 1477.3 | – | 1541.4 | 1566 | 1592.8
